Test results from article PMC6437697 (Journal of Medicinal Chemistry, 2019).

Key:
Assay in all cases: KINOMEscan
Assay type in all cases: binding
Settings in all cases: read-out: % control activity remaining
[1] = target: T1, AURKB (Homo sapiens, UniProt Q96GD4)
T1 construct: purchased Eurofins DiscoverX KINOMEscan

[2] = target: T2, CSNK2A2 (Homo sapiens, UniProt P19784)
T2 construct: purchased Eurofins DiscoverX KINOMEscan

[3] = target: T3, MYLK4 (Homo sapiens, UniProt Q86YV6)
T3 construct: purchased Eurofins DiscoverX KINOMEscan
T3 sequence (Q86YV6 1-388): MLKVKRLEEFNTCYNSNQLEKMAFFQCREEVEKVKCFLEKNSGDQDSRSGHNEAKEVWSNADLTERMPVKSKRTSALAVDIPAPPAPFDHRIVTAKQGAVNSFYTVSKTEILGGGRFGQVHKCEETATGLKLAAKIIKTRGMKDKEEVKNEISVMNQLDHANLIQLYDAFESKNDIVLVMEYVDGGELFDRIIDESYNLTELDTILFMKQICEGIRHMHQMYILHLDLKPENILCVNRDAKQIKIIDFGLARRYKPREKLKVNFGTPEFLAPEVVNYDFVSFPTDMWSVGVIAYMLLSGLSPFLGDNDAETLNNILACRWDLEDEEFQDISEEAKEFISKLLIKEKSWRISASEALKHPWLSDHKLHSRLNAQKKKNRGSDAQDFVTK

[4] = target: T4, AKT2 (Homo sapiens, UniProt P31751)
T4 construct: purchased Eurofins DiscoverX KINOMEscan

[5] = target: T5, MAP4K5 (Homo sapiens, UniProt Q9Y4K4)
T5 construct: purchased Eurofins DiscoverX KINOMEscan
T5 sequence (Q9Y4K4 whole entry): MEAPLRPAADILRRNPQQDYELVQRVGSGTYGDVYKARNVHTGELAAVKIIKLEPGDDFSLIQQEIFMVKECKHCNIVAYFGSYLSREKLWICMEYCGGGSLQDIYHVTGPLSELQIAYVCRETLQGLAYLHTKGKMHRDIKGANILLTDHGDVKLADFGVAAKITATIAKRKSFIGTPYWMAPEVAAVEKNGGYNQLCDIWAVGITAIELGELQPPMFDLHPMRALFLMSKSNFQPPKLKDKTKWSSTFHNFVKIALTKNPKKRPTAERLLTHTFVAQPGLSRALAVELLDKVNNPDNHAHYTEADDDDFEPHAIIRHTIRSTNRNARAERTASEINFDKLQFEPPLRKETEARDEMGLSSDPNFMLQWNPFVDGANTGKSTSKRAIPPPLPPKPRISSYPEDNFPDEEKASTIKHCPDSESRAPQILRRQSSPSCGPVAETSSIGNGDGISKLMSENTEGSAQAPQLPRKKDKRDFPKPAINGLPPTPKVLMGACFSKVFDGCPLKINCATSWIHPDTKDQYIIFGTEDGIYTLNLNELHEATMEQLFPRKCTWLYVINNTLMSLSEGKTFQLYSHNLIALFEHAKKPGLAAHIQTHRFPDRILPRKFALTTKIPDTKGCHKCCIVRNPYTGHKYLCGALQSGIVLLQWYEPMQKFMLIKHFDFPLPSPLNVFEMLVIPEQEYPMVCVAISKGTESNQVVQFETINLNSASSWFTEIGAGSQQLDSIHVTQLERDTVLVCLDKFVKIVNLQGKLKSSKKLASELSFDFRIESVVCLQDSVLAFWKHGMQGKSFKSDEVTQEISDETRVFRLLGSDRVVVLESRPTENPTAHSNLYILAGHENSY

[6] = target: T6, EGFR(L747-S752del, P753S) (Homo sapiens, UniProt P00533, DEL747-752/P753S)
T6 construct: purchased Eurofins DiscoverX KINOMEscan
T6 sequence (P00533 with tags, fused parts or gaps DEL747-752/P753S limits assumed): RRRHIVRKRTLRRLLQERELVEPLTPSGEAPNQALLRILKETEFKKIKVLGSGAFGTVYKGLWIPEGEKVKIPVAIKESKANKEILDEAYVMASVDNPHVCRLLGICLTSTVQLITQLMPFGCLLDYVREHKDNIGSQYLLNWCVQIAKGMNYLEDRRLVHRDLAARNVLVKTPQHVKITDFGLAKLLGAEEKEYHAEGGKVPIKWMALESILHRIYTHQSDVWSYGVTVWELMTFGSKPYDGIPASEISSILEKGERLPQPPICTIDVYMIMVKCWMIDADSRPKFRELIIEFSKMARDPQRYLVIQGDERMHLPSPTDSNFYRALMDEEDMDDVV

[7] = target: T7, FGFR3(G697C) (Homo sapiens, UniProt P22607, G697C)
T7 construct: purchased Eurofins DiscoverX KINOMEscan

[8] = target: T8, BRK (Homo sapiens, UniProt Q13882)
T8 construct: purchased Eurofins DiscoverX KINOMEscan

[9] = target: T9, EGFR(L861Q) (Homo sapiens, UniProt P00533, L861Q)
T9 construct: purchased Eurofins DiscoverX KINOMEscan
T9 sequence (P00533 25-1210 L861Q limits assumed): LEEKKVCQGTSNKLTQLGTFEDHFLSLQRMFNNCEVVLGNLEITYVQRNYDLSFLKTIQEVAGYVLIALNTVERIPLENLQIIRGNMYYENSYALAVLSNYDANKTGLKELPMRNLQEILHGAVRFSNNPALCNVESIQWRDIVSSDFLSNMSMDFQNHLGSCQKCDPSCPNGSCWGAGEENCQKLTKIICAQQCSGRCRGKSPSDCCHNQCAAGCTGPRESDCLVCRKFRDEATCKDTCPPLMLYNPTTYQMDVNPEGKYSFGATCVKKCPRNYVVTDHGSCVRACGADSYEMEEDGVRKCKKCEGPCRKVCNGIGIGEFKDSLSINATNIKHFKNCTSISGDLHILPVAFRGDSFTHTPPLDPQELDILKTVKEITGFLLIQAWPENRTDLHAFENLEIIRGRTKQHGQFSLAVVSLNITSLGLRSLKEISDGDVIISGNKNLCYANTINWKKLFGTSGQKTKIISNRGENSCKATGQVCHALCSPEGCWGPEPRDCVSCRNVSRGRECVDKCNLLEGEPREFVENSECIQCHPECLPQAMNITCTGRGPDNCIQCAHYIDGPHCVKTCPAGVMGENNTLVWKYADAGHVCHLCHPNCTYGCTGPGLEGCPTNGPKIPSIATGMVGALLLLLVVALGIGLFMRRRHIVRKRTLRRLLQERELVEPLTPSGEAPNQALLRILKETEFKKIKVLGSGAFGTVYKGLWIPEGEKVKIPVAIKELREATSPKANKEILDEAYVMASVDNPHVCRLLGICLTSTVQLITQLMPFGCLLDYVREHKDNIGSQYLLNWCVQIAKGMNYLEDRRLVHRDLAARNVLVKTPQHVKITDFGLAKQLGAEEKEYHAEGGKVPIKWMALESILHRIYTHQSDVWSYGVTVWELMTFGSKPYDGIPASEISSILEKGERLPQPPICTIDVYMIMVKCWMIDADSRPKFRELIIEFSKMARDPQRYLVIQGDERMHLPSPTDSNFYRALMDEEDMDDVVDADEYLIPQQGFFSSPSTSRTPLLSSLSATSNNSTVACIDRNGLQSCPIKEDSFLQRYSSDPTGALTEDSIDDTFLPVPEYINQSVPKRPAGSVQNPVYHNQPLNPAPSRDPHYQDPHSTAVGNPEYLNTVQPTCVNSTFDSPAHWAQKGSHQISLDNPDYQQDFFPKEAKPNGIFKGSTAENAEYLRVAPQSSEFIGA

[10] = target: T10, BMPR1B (Homo sapiens, UniProt O00238)
T10 construct: purchased Eurofins DiscoverX KINOMEscan

[11] = target: T11, YANK3 (Homo sapiens, UniProt Q86UX6)
T11 construct: purchased Eurofins DiscoverX KINOMEscan
T11 sequence (Q86UX6 whole entry): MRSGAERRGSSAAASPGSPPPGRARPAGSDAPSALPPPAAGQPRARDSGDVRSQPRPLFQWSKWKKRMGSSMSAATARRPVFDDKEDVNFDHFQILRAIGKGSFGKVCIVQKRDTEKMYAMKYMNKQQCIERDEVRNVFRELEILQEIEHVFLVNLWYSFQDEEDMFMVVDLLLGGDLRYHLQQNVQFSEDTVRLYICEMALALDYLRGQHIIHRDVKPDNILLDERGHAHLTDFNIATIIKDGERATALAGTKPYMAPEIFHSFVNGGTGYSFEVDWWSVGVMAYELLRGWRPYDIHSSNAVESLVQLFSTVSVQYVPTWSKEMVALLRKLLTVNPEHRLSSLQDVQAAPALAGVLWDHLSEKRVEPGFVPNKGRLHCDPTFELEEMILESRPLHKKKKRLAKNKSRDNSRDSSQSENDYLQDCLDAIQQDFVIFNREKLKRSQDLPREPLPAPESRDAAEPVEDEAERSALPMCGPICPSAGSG

[12] = target: T12, ERK5 (Homo sapiens, UniProt Q13164)
T12 construct: purchased Eurofins DiscoverX KINOMEscan

[13] = target: T13, MAP4K3 (Homo sapiens, UniProt Q8IVH8)
T13 construct: purchased Eurofins DiscoverX KINOMEscan
T13 sequence (Q8IVH8 1-894): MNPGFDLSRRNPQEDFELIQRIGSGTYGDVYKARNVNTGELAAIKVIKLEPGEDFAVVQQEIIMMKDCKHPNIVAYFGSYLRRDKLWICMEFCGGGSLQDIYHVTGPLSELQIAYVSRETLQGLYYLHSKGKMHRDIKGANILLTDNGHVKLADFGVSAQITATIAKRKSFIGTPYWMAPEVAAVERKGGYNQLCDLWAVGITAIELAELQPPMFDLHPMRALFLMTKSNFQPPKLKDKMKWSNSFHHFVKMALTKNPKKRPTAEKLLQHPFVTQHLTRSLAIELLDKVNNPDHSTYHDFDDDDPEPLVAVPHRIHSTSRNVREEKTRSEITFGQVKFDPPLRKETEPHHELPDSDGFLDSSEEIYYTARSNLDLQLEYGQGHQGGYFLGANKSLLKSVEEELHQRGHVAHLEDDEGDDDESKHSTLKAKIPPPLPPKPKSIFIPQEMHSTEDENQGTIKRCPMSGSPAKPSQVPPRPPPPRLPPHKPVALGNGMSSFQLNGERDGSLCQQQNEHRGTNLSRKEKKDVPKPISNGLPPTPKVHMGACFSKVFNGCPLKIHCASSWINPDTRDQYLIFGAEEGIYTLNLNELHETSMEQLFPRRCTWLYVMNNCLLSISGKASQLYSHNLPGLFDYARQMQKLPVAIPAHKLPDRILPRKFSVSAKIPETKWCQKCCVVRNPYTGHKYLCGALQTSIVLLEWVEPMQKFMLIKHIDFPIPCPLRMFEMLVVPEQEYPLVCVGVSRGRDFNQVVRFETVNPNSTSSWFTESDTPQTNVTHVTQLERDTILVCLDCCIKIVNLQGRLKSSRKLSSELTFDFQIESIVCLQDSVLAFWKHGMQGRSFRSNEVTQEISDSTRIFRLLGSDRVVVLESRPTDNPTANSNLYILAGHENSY

[14] = target: T14, JAK1(JH1domain-catalytic) (Homo sapiens, UniProt P23458)
T14 construct: JAK1(JH1domain-catalytic); purchased Eurofins DiscoverX KINOMEscan

[15] = target: T15, TSSK1B (Homo sapiens, UniProt Q9BXA7)
T15 construct: purchased Eurofins DiscoverX KINOMEscan
T15 sequence (Q9BXA7 1-367): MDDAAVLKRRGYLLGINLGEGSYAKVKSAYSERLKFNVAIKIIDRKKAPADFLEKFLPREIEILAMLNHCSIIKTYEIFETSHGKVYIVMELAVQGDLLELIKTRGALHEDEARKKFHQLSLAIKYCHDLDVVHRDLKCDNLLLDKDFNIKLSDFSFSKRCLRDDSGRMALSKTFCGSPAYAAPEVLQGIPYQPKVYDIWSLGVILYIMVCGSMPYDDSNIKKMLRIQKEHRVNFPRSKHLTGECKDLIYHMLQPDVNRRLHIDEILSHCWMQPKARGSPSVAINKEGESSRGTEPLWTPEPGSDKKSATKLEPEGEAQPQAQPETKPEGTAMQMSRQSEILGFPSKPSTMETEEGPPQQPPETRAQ

[16] = target: T16, STK35 (Homo sapiens, UniProt Q8TDR2)
T16 construct: purchased Eurofins DiscoverX KINOMEscan
T16 sequence (Q8TDR2 whole entry): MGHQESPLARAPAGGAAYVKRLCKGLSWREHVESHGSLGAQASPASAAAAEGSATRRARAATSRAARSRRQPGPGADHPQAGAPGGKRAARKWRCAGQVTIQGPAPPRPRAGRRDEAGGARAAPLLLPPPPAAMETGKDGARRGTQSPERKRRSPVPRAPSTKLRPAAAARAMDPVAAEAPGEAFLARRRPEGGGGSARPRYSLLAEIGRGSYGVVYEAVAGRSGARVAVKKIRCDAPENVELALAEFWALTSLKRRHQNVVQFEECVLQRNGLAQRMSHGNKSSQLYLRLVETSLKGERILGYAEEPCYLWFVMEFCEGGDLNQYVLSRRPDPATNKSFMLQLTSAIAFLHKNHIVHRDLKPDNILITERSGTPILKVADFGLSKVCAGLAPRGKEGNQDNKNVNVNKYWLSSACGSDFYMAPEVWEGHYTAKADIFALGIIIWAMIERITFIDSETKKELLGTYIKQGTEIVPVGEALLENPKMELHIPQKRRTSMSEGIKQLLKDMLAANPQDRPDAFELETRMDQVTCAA

[17] = target: T17, MARK1 (Homo sapiens, UniProt Q9P0L2)
T17 construct: purchased Eurofins DiscoverX KINOMEscan
T17 sequence (Q9P0L2 whole entry): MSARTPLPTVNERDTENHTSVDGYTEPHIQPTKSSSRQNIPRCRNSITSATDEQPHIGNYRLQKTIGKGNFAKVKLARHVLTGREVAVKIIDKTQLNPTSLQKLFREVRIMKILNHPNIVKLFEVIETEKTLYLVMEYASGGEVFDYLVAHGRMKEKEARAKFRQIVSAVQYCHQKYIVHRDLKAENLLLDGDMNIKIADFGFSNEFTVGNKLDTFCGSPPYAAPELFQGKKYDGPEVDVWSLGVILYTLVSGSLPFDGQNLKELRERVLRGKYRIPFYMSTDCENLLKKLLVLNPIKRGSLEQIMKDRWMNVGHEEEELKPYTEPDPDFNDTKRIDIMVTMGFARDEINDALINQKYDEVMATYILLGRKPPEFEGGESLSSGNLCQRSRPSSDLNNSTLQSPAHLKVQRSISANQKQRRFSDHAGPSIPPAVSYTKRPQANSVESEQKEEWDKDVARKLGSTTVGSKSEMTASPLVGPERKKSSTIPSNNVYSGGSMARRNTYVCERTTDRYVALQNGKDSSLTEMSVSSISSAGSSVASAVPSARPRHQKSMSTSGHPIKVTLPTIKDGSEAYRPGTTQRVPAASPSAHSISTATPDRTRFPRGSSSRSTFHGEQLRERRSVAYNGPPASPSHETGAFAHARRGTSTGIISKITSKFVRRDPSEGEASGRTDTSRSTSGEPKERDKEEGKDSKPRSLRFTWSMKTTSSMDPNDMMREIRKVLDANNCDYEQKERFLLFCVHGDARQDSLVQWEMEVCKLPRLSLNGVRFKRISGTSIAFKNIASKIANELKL

T1 sequence (Q96GD4 whole entry): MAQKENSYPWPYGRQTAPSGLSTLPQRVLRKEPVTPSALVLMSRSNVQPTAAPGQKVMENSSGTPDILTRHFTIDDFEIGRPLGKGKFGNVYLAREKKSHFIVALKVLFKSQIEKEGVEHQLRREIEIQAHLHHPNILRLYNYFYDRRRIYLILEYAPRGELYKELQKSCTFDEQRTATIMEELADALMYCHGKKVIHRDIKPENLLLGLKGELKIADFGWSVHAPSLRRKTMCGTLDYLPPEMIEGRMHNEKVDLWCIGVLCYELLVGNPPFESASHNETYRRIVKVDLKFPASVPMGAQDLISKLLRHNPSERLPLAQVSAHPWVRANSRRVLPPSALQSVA
T2 sequence (P19784 whole entry): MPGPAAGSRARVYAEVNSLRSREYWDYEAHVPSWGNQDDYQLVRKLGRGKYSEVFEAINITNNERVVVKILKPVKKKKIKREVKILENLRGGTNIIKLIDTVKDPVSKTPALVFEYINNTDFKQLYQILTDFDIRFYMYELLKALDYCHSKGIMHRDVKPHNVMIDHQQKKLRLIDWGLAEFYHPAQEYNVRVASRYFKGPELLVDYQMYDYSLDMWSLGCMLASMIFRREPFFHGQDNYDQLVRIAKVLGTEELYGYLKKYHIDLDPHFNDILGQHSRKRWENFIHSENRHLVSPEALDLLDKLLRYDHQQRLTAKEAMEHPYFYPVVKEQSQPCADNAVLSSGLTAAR

| SMILES | remaining binding at 1 µM [1] | remaining binding at 1 µM [2] | remaining binding at 1 µM [3] | remaining binding at 1 µM [4] | remaining binding at 1 µM [5] | remaining binding at 1 µM [6] | remaining binding at 1 µM [7] | remaining binding at 1 µM [8] | remaining binding at 1 µM [9] | remaining binding at 1 µM [10] | remaining binding at 1 µM [11] | remaining binding at 1 µM [12] | remaining binding at 1 µM [13] | remaining binding at 1 µM [14] | remaining binding at 1 µM [15] | remaining binding at 1 µM [16] | remaining binding at 1 µM [17] |
| --- | --- | --- | --- | --- | --- | --- | --- | --- | --- | --- | --- | --- | --- | --- | --- | --- | --- |
| CN1CCC(CNc2cc(Cl)nn3c(-c4cc5nc(Nc6ccccc6)[nH]c5cc4F)cnc23)CC1 [compound 31, 6-Chloro-3-(6-fluoro-2-(phenylamino)-1H-benzo[d]imidazol-5-yl)-N-((1-methylpiperidin-4-yl)methyl)imidazo[1,2-b]pyridazin-8-amine] | 83% | 100% | 91% | 80% | 100% | 100% | 91% | 93% | 100% | 67% | 73% | 87% | 99% | 100% | 88% | 100% | 94% |
| O=C(CN1CCOCC1)N[C@H]1CC[C@H](Nc2cc(Cl)nn3c(-c4ccc5[nH]ncc5c4)cnc23)CC1 [compound 26] | 55% | 100% | 24% | 99% | 87% | 81% | 85% | 85% | 100% | 100% | 99% | 98% | 92% | 100% | 92% | 97% | 94% |
| Clc1cc(NCC2CC2)c2ncc(-c3ccc4[nH]ncc4c3)n2n1 [compound 2, 6-Chloro-N-(cyclopropylmethyl)-3-(1H-indazol-5-yl)imidazo[1,2-b]pyridazin-8-amine] | 90% | 94% | 67% | 99% | 98% | 89% | 78% | 87% | 82% | 100% | 100% | 100% | 71% | 100% | 100% | 77% | 86% |
